Where two headings read alike, the source gives them in different places.
Legend:
Assay type in all cases: cell-based
[1] = tested on: cell lines of human non-small cell lung cancer (H522); assay: In vitro antineoplastic activity, MTT experiment, H522; details: H522 cells, 48 hours, highest concentration tested 31.6 μM (>30: inhibition rate <50%)
Procedure: (§1) MTT, RPM1640 culture medium, fetal bovine serum, 96-well plate, CO2 thermostatic incubator, American BIO-RAD680 microplate reader, cell lines of human non-small cell lung cancer (H522), and cell lines of human brain glioma (U87) were all obtained commercially.
(§2) (1) Cell inoculation: A single cell suspension was prepared with culture media supplemented with 10% fetal bovine serum, plated into a 96-well plate with 5000 cells per well, each well having a volume of 100 μL, and cultured overnight.
(§3) (2) Preparation of compound solutions: a DMSO stock solution of a compound was diluted on a sterile bench with a culture medium into 5 concentrations to be tested, wherein a double dilution was employed between two adjacent concentrations.
(§4) (3) The compound solutions of various concentrations were added into the 96-well plate cultured overnight, with 100 μL added per well, triplicated wells for each concentration. Since the peripheral wells can have edge effect and are susceptible to contamination, no cells or compounds were added thereto; instead, 100 μL culture solution was added as a blank. Additionally, 100% wells were set to contain the cells and 100 μL culture media without any compound. The plates were incubated in a thermostatic incubator at 37° C. for 48 hours.
(§5) (4) Staining: 10 μL MTT solution (5 mg/mL, prepared with PBS) was added into the 96-well plate for staining. After incubation for 4 hours, centrifugation was performed at 2500 rpm for 10 minutes. Then, a multiple pipette was used to suck the culture solution out of the wells carefully without sucking out the cells while the pipette tip faced downward. 150 μL DMSO was added and shaken on a shaker for 5-10 minutes. Crystals were allowed to dissolve fully, and an OD value for each well was measured using the microplate reader at 570 nm. The inhibition rate was calculated as follows: Inhibition rate (%)=(average OD value of 100% wells−average OD value of compound wells)/(average OD value of 100% wells−average OD value of blank wells)×100%

[2] = tested on: cell lines of human brain glioma (U87); assay: In vitro antineoplastic activity, MTT experiment, U87
Procedure: as §1, §2, §3, §4, §5

human glioma U87 cells = assay: Tumor cell vacuolization (methuosis) scoring, U87; parameters: key to Vacuolation Score: 5 scores were given when obvious vacuolization occurred at 10 nM; 4 scores at 31.6 nM; 3 scores at 100 nM; 2 scores at 316 nM; 1 score at 1000 nM; 0 score was given if no vacuolation occurred at any concentration; details: U87 cells; for Vacuolation Score: 0.01-3.160 μM, 96 hours, microscope
Procedure: FIG. 2. Vacuolization of tumor cells. 100 microliter culture medium (RPMI1640, 2 mmol glutamine, 10% fetal bovine serum) containing 10^3 human colon adenocarcinoma cells (HCT15) or human brain glioma cells (U87) and a solvent DMSO control or 100 nM #40 compound (L16) was plated into a 96-well cell culture plate, and cell morphological image was taken under a phase contrast microscope after cultured at 5% CO2 and 37° C. for 96 hours.
Some cells gradually became round and eventually bursted. These changes are consistent with the features of cell death by methuosis (FIG. 2).
In order to compare the ability of different compounds to cause cell vacuolization, 100 μL culture media (RPMI1640, 2 mmol glutamine, 10% fetal bovine serum) comprising 10^3 human glioma U87 cells and final concentrations of 0.01, 0.0316, 0.1, 0.316, 1.0, 3.160 μM respectively of the compounds to be tested were inoculated into a 96-well culture plate. After cultured at 5% CO2 and 37° C. for 96 hours, cell morphology was observed under a high-magnification microscope, and the ability of the compounds to cause cell vacuolization was scored. 5 scores were given when obvious vacuolization occurred at 10 nM, 4 scores at 31.6 nM, 3 scores at 100 nM, 2 scores at 316 nM, 1 score at 1000 nM, and 0 score was given if no vacuolation occurred at any concentration.

[3] = U87 cells, MTT, 48 hours, highest concentration tested 31.6 μM, read-out: IC50(μM) U87
[4] = ability to inhibit cell proliferation, U87 (FIG. 3), unit inferred, read-out: IC50

| SMILES | IC50 [1] | IC50 [2, 3] | IC50 [2, 4] | Vacuolation Score (human glioma U87 cells) | ability to cause cell vacuolization (in words) (human glioma U87 cells; among the compounds tested) | IC50 ([2]; Homo sapiens, ability to inhibit cell proliferation, U87 (FIG. 3), unit inferred, read-out: IC50) |
| --- | --- | --- | --- | --- | --- | --- |
| O=C(Nc1ccc(Cl)cc1)Nc1ccc(Nc2nc(/C=C/c3cccc([N+](=O)[O-])c3)nc(N3CC(O)C3)n2)cc1 [L22, (E)-1-(4-chlorophenyl)-3-(4-(4-(3-hydroxyazetidin-1-yl)-6-(3-nitrostyrenyl)-1,3,5-triazinyl-2-amino)phenyl)urea] | 1.27 ± 0.08 µM | 1.32 ± 0.22 µM | 1.33 µM | 0 |  |  |
| CN1CCN(c2nc(/C=C/c3cccc([N+](=O)[O-])c3)nc(Nc3ccc(NC(=O)Nc4ccc(Cl)cc4)cc3)n2)CC1 [L18, (E)-1-(4-chlorophenyl)-3-(4-(4-(4-methylpiperazin-1-yl)-6-(3-nitrostyrenyl)-1,3,5-triazinyl-2-amino)phenyl)urea] | 2.31 ± 0.17 µM | 1.21 ± 0.07 µM | 1.21 µM | 0 |  |  |
| O=C(Nc1ccc(F)cc1)Nc1ccc(Nc2nc(/C=C/c3cccc([N+](=O)[O-])c3)nc(N3CCOCC3)n2)cc1 [L17, (E)-1-(4-fluorophenyl)-3-(4-(4-(morpholin-1-yl)-6-(3-nitrostyrenyl)-1,3,5-triazinyl-2-amino)phenyl)urea] | > 30 µM | 1.11 ± 0.1 µM | 1.19 µM | 3.5 |  |  |
| CN(C)CCCNC(=O)c1ccc(NC(=O)Nc2ccc(Nc3nc(/C=C/c4ccccc4)nc(N4CCOCC4)n3)cc2)cc1 [L34, (E)-N-(3-(dimethylamino)propyl)-4-(3-(4-(4-(morpholin-1-yl)-6-styrenyl-1,3,5-triazinyl-2-amino)phenyl)urea)benzamide] | 4.91 ± 0.1 µM | 2.31 ± 0.29 µM | 3 µM | 3.5 |  |  |
| O=C(Nc1ccc(Nc2nc(/C=C/c3ccccc3)nc(N3CCOCC3)n2)cc1)Nc1ccc(C(=O)O)cc1 [compound 14, (E)-1-(4-carboxyphenyl)-3-(4-(4-(morpholin-1-yl)-6-styrenyl-1,3,5-triazinyl-2-amino)phenyl)urea] |  |  |  | 1.5 |  |  |
| CN1CCN(c2nc(/C=C/c3cccc(Cl)c3)nc(Nc3ccc(NC(=O)Nc4ccc(F)cc4)cc3)n2)CC1 [L9, (E)-1-(4-fluorophenyl)-3-(4-(4-(4-methylpiperazin-1-yl)-6-(3-chlorostyrenyl)-1,3,5-triazinyl-2-amino)phenyl)urea] | 3.88 ± 0.65 µM | 1.47 ± 0.12 µM | 1.47 µM | 2 (2 scores at 316 nM) |  |  |
| CN1CCN(c2nc(/C=C/c3ccc(Cl)cc3)nc(Nc3ccc(NC(=O)Nc4ccc(F)cc4)cc3)n2)CC1 [L14, (E)-1-(4-fluorophenyl)-3-(4-(4-(4-methylpiperazin-1-yl)-6-(4-chlorostyrenyl)-1,3,5-triazinyl-2-amino)phenyl)urea] | 5.03 ± 0.49 µM | 2.48 ± 0.11 µM | 2.48 µM | 0 |  |  |
| O=C(Nc1ccc(Cl)cc1)Nc1ccc(Nc2nc(/C=C/c3ccc(Cl)cc3)nc(N3CCOCC3)n2)cc1 [L10, (E)-1-(4-chlorophenyl)-3-(4-(4-(morpholin-1-yl)-6-(4-chlorostyrenyl)-1,3,5-triazinyl-2-amino)phenyl)urea] | 2.18 ± 0.23 µM | 4.92 ± 0.16 µM | 4.92 µM | 3 (3 scores at 100 nM) |  |  |
| CN1CCN(c2nc(/C=C/c3ccccc3)nc(Nc3ccc(NC(=O)Nc4ccc(Cl)cc4)cc3)n2)CC1 [L3, (E)-1-(4-chlorophenyl)-3-(4-(4-(4-methylpiperazin-1-yl)-6-styrenyl-1,3,5-triazinyl-2-amino)phenyl)urea] | > 30 µM | 10.6 ± 1.2 µM | > 10 µM | 0 |  |  |
| CN1CCN(c2nc(/C=C/c3ccc(Cl)cc3)nc(Nc3ccc(NC(=O)Nc4ccc(Cl)cc4)cc3)n2)CC1 [L13, (E)-1-(4-chlorophenyl)-3-(4-(4-(4-methylpiperazin-1-yl)-6-(4-chlorostyrenyl)-1,3,5-triazinyl-2-amino)phenyl)urea] | 0.87 ± 0.08 µM | 2.04 ± 0.09 µM | 2.04 µM | 0 |  |  |
| O=C(Nc1ccc(Cl)cc1)Nc1ccc(Nc2nc(/C=C/c3cccc([N+](=O)[O-])c3)nc(N3CCCC3)n2)cc1 [L21, (E)-1-(4-chlorophenyl)-3-(4-(4-(pyrrolidin-1-yl)-6-(3-nitrostyrenyl)-1,3,5-triazinyl-2-amino)phenyl)urea] | 7.3 ± 0.75 µM | 4.47 ± 0.39 µM | 4.47 µM | 0 |  |  |
| CN(C)C(=O)c1ccc(NC(=O)Nc2ccc(Nc3nc(/C=C/c4ccccc4)nc(N4CCOCC4)n3)cc2)cc1 [L29, (E)-N,N-dimethyl-4-(3-(4-(4-(morpholin-1-yl)-6-styrenyl-1,3,5-triazinyl-2-amino)phenyl)urea)benzamide] | 6.51 ± 0.94 µM | 0.53 ± 0.02 µM | 0.75 µM | 3.5 |  |  |
| CN1CCN(c2nc(/C=C/c3ccccc3)nc(Nc3cccc(NC(=O)Nc4ccc(Cl)cc4)c3)n2)CC1 [L24, (E)-1-(4-chlorophenyl)-3-(3-(4-(4-methylpiperazin-1-yl)-6-styrenyl-1,3,5-triazinyl-2-amino)phenyl)urea] | 4.03 ± 0.65 µM | 4.4 ± 0.88 µM | 4.4 µM | 0 |  |  |
| CN(C)c1nc(/C=C/c2cccc([N+](=O)[O-])c2)nc(Nc2ccc(NC(=O)Nc3ccc(Cl)cc3)cc2)n1 [L20, (E)-1-(4-chlorophenyl)-3-(4-(4-dimethylamino-6-(3-nitrostyrenyl)-1,3,5-triazinyl-2-amino)phenyl)urea] | 5.55 ± 0.4 µM | 5.12 ± 0.28 µM | 5.12 µM | 0 |  |  |
| CCN(CC)CCNC(=O)c1ccc(NC(=O)Nc2ccc(Nc3nc(/C=C/c4ccccc4)nc(N4CCOCC4)n3)cc2)cc1 [L33, (E)-N-(2-(diethylamino)ethyl)-4-(3-(4-(4-(morpholin-1-yl)-6-styrenyl-1,3,5-triazinyl-2-amino)phenyl)urea)benzamide] | 4.31 ± 0.09 µM | 1.3 ± 0.05 µM | 1.9 µM | 3.5 |  |  |
| O=C(Nc1ccc(Cl)cc1)Nc1ccc(Nc2nc(/C=C/c3ccccc3)nc(N3CCOCC3)n2)cc1 [L1, (E)-1-(4-chlorophenyl)-3-(4-(4-(morpholin-1-yl)-6-styrenyl-1,3,5-triazinyl-2-amino)phenyl)urea] | 3.26 ± 0.34 µM | 4.79 ± 0.55 µM | 3.53 µM | 5 (5 scores were given when obvious vacuolization occurred at 10 nM) | strongest ability to cause cell vacuolization |  |
| O=C(Nc1ccc(Cl)cc1)Nc1ccc(Nc2nc(/C=C/c3cccc(Cl)c3)nc(N3CCOCC3)n2)cc1 [L6, (E)-1-(4-chlorophenyl)-3-(4-(4-(morpholin-1-yl)-6-(3-chlorostyrenyl)-1,3,5-triazinyl-2-amino)phenyl)urea] | 5.25 ± 0.45 µM | 3.63 ± 0.11 µM | 3.63 µM | 4 (4 scores at 31.6 nM) |  |  |
| O=C(Nc1ccc(F)cc1)Nc1ccc(Nc2nc(/C=C/c3ccc(Cl)cc3)nc(N3CCOCC3)n2)cc1 [L11, (E)-1-(4-fluorophenyl)-3-(4-(4-(morpholin-1-yl)-6-(4-chlorostyrenyl)-1,3,5-triazinyl-2-amino)phenyl)urea] | 0.3 ± 0.03 µM | 2.5 ± 0.08 µM | 2.5 µM | 2 (2 scores at 316 nM) |  |  |
| Cl.O=C(Nc1ccc(Cl)cc1)Nc1ccc(Nc2nc(/C=C/c3cccc([N+](=O)[O-])c3)nc(N3CCOCC3)n2)cc1 [compound 68] |  |  |  | 4 (4 scores at 31.6 nM) |  | 3.28 µM |

Source: patent publication US11390591B2, “2,4,6-trisubstituted s-triazine compound, preparation method therefor, and use thereof” (Aluda Pharmaceuticals, Inc., priority 2016, dated 2022)
